According to PubChem BioAssay (NCI):
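Interpolation was linear, between the two tested concentrations surrounding the appropriate level; five concentrations were tested over 48 hours in 96-well plates. At the GI50, growth is halved. TGI: total growth inhibition.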

How the values were obtained:
Test in all cases: NCI tumour cell line growth inhibition, 48 h
LXFL 529 NSCLC = system: LXFL 529 NSCLC
RXF-631 renal = system: RXF-631 renal
XF 498 CNS = system: XF 498 CNS
P388 leukemia = system: P388 leukemia
P388/ADR leukemia = system: P388/ADR leukemia
SN12K1 renal = system: SN12K1 renal
786-0 renal = system: 786-0 renal
HS 578T breast = system: HS 578T breast

| Structure (SMILES) | TGI (XF 498 CNS) | TGI (HS 578T breast) | GI50 (HS 578T breast) | further results |
| --- | --- | --- | --- | --- |
| CC(C)(C)CI | 34.9 µM | – | – | TGI (LXFL 529 NSCLC): > 100 µM; TGI (RXF-631 renal): > 100 µM |
| COc1nc(NC2OC(CO)C(O)C(O)C2O)c(N)c(=O)[nH]1 (configuration not stated) | > 100 µM | – | – | TGI (P388 leukemia): > 100 µM; TGI (P388/ADR leukemia): > 100 µM; TGI (SN12K1 renal): > 100 µM |
| CC1OC(CO)(n2cnc3c(N)ncnc32)C(O)C1O (configuration not stated) | > 100 µM | – | – | TGI (P388 leukemia): > 100 µM; TGI (P388/ADR leukemia): > 100 µM; TGI (SN12K1 renal): > 100 µM |
| CON[N+]([O-])=NC(C)C | – | > 100 µM | – | TGI (786-0 renal): > 100 µM |
| CCCCCCCCCCCCCCCCCCOc1ccccc1COP(=O)(O)OOCC[N+](C)(C)C | – | 4.91 µM | 1.18 µM | – |
| O=C1OC(c2ccccc2Br)=N/C1=C/c1ccccc1 | – | > 100 µM | – | – |
| COc1cc(N(CCCl)CCCl)ccc1/C=N\NC(=O)c1cccnc1 | – | > 100 µM | 32.6 µM | – |
| O=C1CCC2COc3ccc(O)c1c32 (configuration not stated) | > 100 µM | – | – | TGI (LXFL 529 NSCLC): > 100 µM |
| C#CCNC(=O)CC[C@@H](C)[C@H]1CC[C@H]2[C@@H]3CC[C@@H]4CC(=O)CC[C@]4(C)[C@H]3CC[C@]12C | – | 77.3 µM | 21.3 µM | – |
